One data set concerns human Hif1α. In words: Western analysis of Hif1α protein in HeLaTREx stable clones carrying 2O2_Hif1, doxycycline induction. It is filed as cell-based. The protocol:
Cells were directly lysed on 6-well plates in 1× Laemmli sample buffer. Proteins were separated by SDS-PAGE, transferred to PVDF membrane, and western blotting was performed using antibodies against Chk1 (1:200, Santa Crutz Biotechnology, Santa Crutz, Calif. 95060), HIF-1 alpha (1:500, BD Bioscience, Palo Alto, Calif. 94303) or tetR (1:2000, Mo Bi Tec, Germany).
To determine whether the 2O2 promoter retains the ability to respond to doxycycline after integrating into chromosomes, the inventors used a commercial tetR expressing cell line, HeLaTREx, (Invitrogen Corp., Carlsbad, Calif. 92008) to establish stable clones that carried the 2O2 promoter linked to an shRNA targeting human Hif1α (2O2_Hif1).
Using the best-regulated 2O2_Hif1 clone (Hif1-7), the inventors further characterized the time and dose dependency of doxycycline induction of the 2O2 expression system. […] The doxycycline concentration that is required for maximal induction of the 2O2 system was determined in a dose-response experiment.

The test system of data set [1] is Hif1α. In words: Hif1α protein level (western) in D54_Hif clones with or without doxycycline. In kind it is cell-based, human. Conditions: D54_Hif18 cells, 1 μg/ml doxycycline. The procedure:
(§1) Cells were incubated in the presence or absence of 1 μg/ml doxycycline. After thirty-six hours, cells were either untreated (N) or subjected to hypoxia treatment (H) for an additional sixteen hours. The cells were lysed and analyzed by western blotting using antibodies against Hif1α (upper panel) or Hif1β (lower panel). […] Cells were transfected with either pGL3-control/pRL-TK (left panel) or 1×HRE/pRL-TK plasmids (right panel) in the presence or absence of 1 μg/ml doxycycline. Thirty-six hours following transfection, cells were subjected to hypoxia treatment. Luciferase activities were determined sixteen hours after hypoxia treatment. […] Cells were incubated in the presence or absence of 1 μg/ml doxycycline. After thirty-six hours, cells were either untreated (N) or subjected to hypoxia treatment (H) for an additional sixteen hours. Total RNA were prepared and used in quantitative PCR for analyzing the level of the indicated genes.
(§2) To assess the potential therapeutic effect of Hif1 inhibition, we established stable cell lines from D54MG parental cells that express an shRNA against Hif1α under the control of doxycycline. A panel of 8 shRNAs against Hif1α was first screened for their abilities to knockdown the target (data not shown), and the best shRNA was selected for the creation of Hif1α knockdown cell lines. […]

Data set [2] concerns Hif1 dependent transcriptional activity. Nature of the data set: Hif1 reporter (1×HRE) luciferase activity in D54_Hif clones. It is filed as cell-based, human. Conditions: D54_Hif25 cells, 1 μg/ml doxycycline, hypoxia. The protocol:
as §1, §2

For data set [3], the system named is Hif1α. Nature of the data set: Hif1α knockdown in subcutaneous xenograft tumors (QPCR, IHC), doxycycline in drinking water. In kind it is in vivo, SCID mice. Conditions: D54_Hif25 tumors, 1 mg/ml doxycycline in drinking water for 3 days. The procedure:
Mice bearing 200-300 mm^3 tumors were supplied with doxycycline (1 mg/ml) for 3, 6, 9 or 12 days. Tumors were collected at the end of treatment and Hif1α mRNA levels were determined by QPCR. Tumors from mice without Dox treatment were used as controls. […] Hif1α mRNA level was determined by QPCR. […] The Hif1α expression level was examined by IHC, and quantified using AxioVision 4 (Zeiss).
To determine whether target knockdown can be induced in xenograft tumors, the D54_Hif25 cells were injected subcutaneously into SCID mice. After tumors reached an average size of 200 mm^3, the mice were supplied with drinking water containing 1 mg/ml doxycycline to induce the expression of Hif1α shRNA. After treating the mice with doxycycline for 3, 6, 9, or 12 days, the tumors were collected and analyzed by QPCR to determine the Hif1α messenger level. […] Examination of the tumor samples by immunohistochemistry indicated a clear reduction of the Hif1α protein from day 3 onward (data not shown).
To determine whether the ability to induce target knockdown would be impaired over long-term doxycycline treatment or when the tumors reach a very large size, further analysis was performed of the knockdown of Hif1α in tumors from mice treated with doxycycline for 45 days. The average tumor size at the end of treatment was 2000 mm^3. […]

The subject of another data set is tyrosinase. Nature of the data set: Tyrosinase knockdown mice by pronuclear injection of 2O2 promoter transgenes. It is filed as in vivo. Conditions: mice without tetR expression. The protocol: Pronuclear injection is a well-established method for creating transgenic animals. In this approach, a DNA fragment (the transgene) is injected into the pronuclear stage of fertilized eggs, and the injected eggs are implanted into pseudopregnant animals. In a typical experiment, 50-80 eggs are injected in which half of the injected eggs will survive to generate neonates and 5%-20% of the neonates will contain the transgene.
Tyrosinase was selected as a target to knockdown. Tyrosinase is a key enzyme in melanin production, and the knockdown of tyrosinase in mice will generate an apparent coat color change.
To determine whether a modified pol III dependent promoter, such as the 2O2 promoter, is suitable for the creation of knockdown animals, transgenes were created that used the 2O2 promoters to express the two best shRNAs against tyrosinase (2O2-Tyr731 (SEQ ID NO: 46) and 2O2-Tyr338 (SEQ ID NO: 47)). These transgenes are shown below. The bold characters represent the shRNA sequences and the underscored characters represent the promoter sequences. […] In mice without tetR expression, the 2O2 promoter is expected to be constitutively active.

These results are taken from patent US20060031949A1, “Inducible expression systems for modulating the expression of target genes in eukaryotic cells and non-human animals” (priority 2004, published 2006).

Turning to `C[C@H]1c2cccc(O)c2C(=O)C2=C(O)[C@]3(O)C(=O)C(C(N)=O)=C(O)[C@@H](N(C)C)[C@@H]3[C@@H](O)[C@@H]21` [doxycycline], the “inhibition of Hif-1 protein” value was “more than 90%” in the data set with human Hif1α (clone Hif1-7, 0.1 ng/ml of doxycycline) and “more than 90%” in the data set with human Hif1α (clone Hif1-7, 24 hours after doxycycline treatment). Also, the “doxycycline concentration at which maximal inhibition of Hif1α protein was reached” value with human Hif1α (clone Hif1-7, dose-response experiment) came to 10 ng/mL. For the same molecule, the “reduction of the Hif1α protein” value with Hif1α [1] was 80%. Further, the “reduction of the Hif1 reporter activity” value in data set [2] stood at 80%. In the data set with Hif1α [3], the “reduction of the Hif1α mRNA in tumors” value worked out at 80%.

B1: 2O2-Tyr338: transgene using the 2O2 promoter to express an shRNA against tyrosinase (SEQ ID NO: 47) (nucleic acid)
DNA: GAATTCCAGGCAAAACGCACCACGTGACGGAGCGTGACCGCGCGCCGAGCGCGCGCCAAGGTCGGGCAGGAAGAGGGCCTATTTCCCATGATTCCATCATATTTGCATATACGATACAAGGCTGTTAGAGAGATAATTAGAATTAATTCGACTGTAAACACAAAGATATTAGTATAAAATACGTGACGTAGAAAGTAATAATTTCTTGGGTAGTTTGCAGTTTTAAAATTATGTTTTAAAATGGACTATCATATGCTTACCGTAACTTGAAACTCCCTATCAGTGATAGAGATTATATATCTCCCTATCAGTGATAGAGACCGGCAACTTCATGGGTTTCATTCAAGAGATGAAACCCATGAAGTTGCCTTTTTTAAGCTT
modifications: 2O2 promoter transgene; 2O2-Tyr338
In the case of B1, the “viability of transgene-positive embryos” value with tyrosinase (40 pups without transgene, two dead embryos with it) was “embryonic lethality”.

B2: 2O2-Tyr731: transgene using the 2O2 promoter to express an shRNA against tyrosinase (SEQ ID NO: 46) (nucleic acid)
DNA: GAATTCCAGGCAAAACGCACCACGTGACGGAGCGTGACCGCGCGCCGAGCGCGCGCCAAGGTCGGGCAGGAAGAGGGCCTATTTCCCATGATTCCATCATATTTGCATATACGATACAAGGCTGTTAGAGAGATAATTAGAATTAATTCGACTGTAAACACAAAGATATTAGTATAAAATACGTGACGTAGAAAGTAATAATTTCTTGGGTAGTTTGCAGTTTTAAAATTATGTTTTAAAATGGACTATCATATGCTTACCGTAACTTGAAACTCCCTATCAGTGATAGAGATTATATATCTCCCTATCAGTGATAGAGACCGTGACATTTGCACAGATGATTCAAGAGATCATCTGTGCAAATGTCACTTTTTTAAGCTT
modifications: 2O2-Tyr731
Turning to B2, the “coat color of transgene-positive pups” value in the data set on tyrosinase (three of 20 pups carried the transgene) was “different degrees of coat color change”.
